Tests used:
L02 = test: MTT cytotoxicity assay, L02 normal cells; type: cell-based; settings: Homo sapiens, 72 h cell treatment
Method: (§1) The cells (5 × 10^4 cells/well) were incubated overnight in 96-well plates. A series of solutions containing varying concentrations of inhibitors were added and incubated at 37°C for a period of 72 h. Subsequently, the culture medium was removed, followed by a subsequent incubation of the cells with a 5 mg/mL MTT stock solution for 4 h. After centrifugation, the precipitate was solubilized in DMSO and gently shaken for 15 min. Finally, the absorbance measurement at 570 nm was completed using a microplate reader. Data analysis was performed using GraphPad Prism 6.0 software.

Li-7 = test: MTT cytotoxicity assay, Li-7; type: cell-based; settings: Homo sapiens, 72 h cell treatment
Method: as §1

HDAC7 = target: T1, HDAC7 (Homo sapiens, UniProt Q8WUI4); test: In vitro selectivity assay; type: biochemical; settings: selectivity panel
T1 construct: ICE Bioscience Inc. (Beijing, China), the contract lab that ran the assay
T1 sequence (Q8WUI4 whole entry): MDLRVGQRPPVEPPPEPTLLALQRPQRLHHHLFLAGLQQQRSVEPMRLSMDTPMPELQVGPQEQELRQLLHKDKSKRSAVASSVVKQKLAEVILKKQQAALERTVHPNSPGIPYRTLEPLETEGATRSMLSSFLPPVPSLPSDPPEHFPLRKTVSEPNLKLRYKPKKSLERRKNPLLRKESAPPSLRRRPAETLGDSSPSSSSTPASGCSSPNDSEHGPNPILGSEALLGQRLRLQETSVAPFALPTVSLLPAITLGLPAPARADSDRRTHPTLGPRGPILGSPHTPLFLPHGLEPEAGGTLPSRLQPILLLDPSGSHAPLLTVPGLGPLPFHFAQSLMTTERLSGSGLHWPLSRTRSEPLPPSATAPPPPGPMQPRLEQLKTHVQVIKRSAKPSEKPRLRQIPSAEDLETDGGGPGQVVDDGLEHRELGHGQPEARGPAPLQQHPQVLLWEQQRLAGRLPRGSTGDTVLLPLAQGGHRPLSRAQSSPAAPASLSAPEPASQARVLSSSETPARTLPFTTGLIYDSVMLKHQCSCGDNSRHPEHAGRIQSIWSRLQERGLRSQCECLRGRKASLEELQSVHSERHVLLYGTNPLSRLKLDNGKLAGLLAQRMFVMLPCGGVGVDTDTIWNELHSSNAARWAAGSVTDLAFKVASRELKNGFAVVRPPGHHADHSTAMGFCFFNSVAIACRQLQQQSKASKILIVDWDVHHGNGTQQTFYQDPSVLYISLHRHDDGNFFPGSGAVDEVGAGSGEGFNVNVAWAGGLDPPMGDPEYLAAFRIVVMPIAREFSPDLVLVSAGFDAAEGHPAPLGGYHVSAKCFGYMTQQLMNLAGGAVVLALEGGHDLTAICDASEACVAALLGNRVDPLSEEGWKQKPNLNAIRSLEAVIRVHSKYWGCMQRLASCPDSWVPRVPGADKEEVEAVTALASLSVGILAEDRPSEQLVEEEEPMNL
Method: (§2) The inhibitory effects of compound MPH-5 on a panel of 68 kinases and other histone deacetylases were evaluated to assess the selectivity profile of MPH-5. This experiment was conducted by ICE Bioscience Inc. (Beijing, China).

NTRK1 = target: T2, NTRK1 (Homo sapiens, UniProt P04629); test: In vitro selectivity assay; type: biochemical; settings: selectivity panel
T2 construct: ICE Bioscience Inc. (contract assay provider)
Method: as §2

ERBB2 = ERBB2 (Homo sapiens, UniProt P04626); test: In vitro selectivity assay; type: biochemical; settings: selectivity panel
Method: as §2

HDAC5 = target: T3, HDAC5 (Homo sapiens, UniProt Q9UQL6); test: In vitro selectivity assay; type: biochemical; settings: selectivity panel
T3 construct: ICE Bioscience Inc. (contract assay provider)
Method: as §2

LYN = target: T4, LYN (Homo sapiens, UniProt P07948); test: In vitro selectivity assay; type: biochemical; settings: selectivity panel
T4 construct: ICE Bioscience Inc. (contract assay provider)
Method: as §2

INSRR = INSRR (Homo sapiens, UniProt P14616); test: In vitro selectivity assay; type: biochemical; settings: selectivity panel
Method: as §2

ALK = target: T5, ALK (Homo sapiens, UniProt Q9UM73); test: In vitro selectivity assay; type: biochemical; settings: selectivity panel
T5 construct: ICE Bioscience Inc. (assay service)
Method: as §2

EPHA4 = target: T6, EPHA4 (Homo sapiens, UniProt P54764); test: In vitro selectivity assay; type: biochemical; settings: selectivity panel
T6 construct: ICE Bioscience Inc. (assay service)
T6 sequence (P54764 20-986): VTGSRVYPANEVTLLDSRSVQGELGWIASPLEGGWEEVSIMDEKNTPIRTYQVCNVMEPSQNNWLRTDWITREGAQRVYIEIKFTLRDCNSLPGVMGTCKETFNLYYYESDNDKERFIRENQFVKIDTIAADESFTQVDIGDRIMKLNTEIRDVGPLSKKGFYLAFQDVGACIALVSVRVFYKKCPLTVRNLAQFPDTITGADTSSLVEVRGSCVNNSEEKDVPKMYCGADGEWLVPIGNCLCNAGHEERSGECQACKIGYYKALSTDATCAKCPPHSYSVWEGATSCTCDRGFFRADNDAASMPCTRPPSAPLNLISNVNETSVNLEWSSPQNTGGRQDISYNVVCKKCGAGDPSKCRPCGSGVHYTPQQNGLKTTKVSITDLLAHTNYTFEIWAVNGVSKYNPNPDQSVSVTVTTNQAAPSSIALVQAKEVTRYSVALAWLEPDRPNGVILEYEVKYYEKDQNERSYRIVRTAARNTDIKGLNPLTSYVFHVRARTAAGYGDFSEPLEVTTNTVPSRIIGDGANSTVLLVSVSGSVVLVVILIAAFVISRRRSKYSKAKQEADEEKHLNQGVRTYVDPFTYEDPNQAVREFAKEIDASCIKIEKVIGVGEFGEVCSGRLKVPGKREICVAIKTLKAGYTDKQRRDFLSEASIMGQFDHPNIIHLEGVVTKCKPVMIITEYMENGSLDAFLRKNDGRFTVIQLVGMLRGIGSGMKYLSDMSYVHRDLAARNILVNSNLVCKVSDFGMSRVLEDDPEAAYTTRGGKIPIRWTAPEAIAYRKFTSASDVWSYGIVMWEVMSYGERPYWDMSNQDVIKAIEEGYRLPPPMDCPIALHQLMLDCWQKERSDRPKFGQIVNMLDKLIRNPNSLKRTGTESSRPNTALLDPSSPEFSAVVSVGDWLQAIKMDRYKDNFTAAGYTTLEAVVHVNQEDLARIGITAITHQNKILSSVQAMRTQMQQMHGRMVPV
Method: as §2

HDAC3 = target: T7, HDAC3 (Homo sapiens, UniProt O15379); test: In vitro selectivity assay; type: biochemical; settings: selectivity panel
T7 construct: ICE Bioscience Inc. (contract assay provider)
Method: as §2

HDAC4 = target: T8, HDAC4 (Homo sapiens, UniProt P56524); test: In vitro selectivity assay; type: biochemical; settings: selectivity panel
T8 construct: ICE Bioscience Inc. (contract assay provider)
Method: as §2

ZAP70 = ZAP70 (Homo sapiens, UniProt P43403); test: In vitro selectivity assay; type: biochemical; settings: selectivity panel
Method: as §2

INSR = INSR (Homo sapiens, UniProt P06213); test: In vitro selectivity assay; type: biochemical; settings: selectivity panel
Method: as §2

AXL = target: T9, AXL (Homo sapiens, UniProt P30530); test: In vitro selectivity assay; type: biochemical; settings: selectivity panel
T9 construct: ICE Bioscience Inc. (assay service)
T9 sequence (P30530 26-894): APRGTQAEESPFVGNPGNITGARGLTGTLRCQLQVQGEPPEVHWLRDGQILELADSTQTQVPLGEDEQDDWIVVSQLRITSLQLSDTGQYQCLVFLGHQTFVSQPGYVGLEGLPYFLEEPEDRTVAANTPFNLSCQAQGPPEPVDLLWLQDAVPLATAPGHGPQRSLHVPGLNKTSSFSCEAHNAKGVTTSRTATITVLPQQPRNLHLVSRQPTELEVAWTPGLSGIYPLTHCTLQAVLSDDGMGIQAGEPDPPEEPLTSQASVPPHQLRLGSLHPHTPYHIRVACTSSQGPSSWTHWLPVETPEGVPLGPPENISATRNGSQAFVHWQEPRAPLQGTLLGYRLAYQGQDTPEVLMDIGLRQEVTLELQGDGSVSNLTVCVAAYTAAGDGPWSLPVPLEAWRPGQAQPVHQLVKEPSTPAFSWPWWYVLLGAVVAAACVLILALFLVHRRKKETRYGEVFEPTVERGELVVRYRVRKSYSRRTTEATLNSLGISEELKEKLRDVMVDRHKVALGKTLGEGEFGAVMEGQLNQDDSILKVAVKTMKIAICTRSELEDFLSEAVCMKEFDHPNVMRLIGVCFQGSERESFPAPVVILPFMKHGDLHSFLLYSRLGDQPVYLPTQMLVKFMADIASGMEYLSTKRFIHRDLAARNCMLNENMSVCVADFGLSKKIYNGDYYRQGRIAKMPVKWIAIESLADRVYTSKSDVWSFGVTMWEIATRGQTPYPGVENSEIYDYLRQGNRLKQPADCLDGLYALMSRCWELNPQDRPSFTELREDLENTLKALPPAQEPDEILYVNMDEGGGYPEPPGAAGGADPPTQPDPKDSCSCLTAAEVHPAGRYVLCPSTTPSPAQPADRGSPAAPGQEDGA
Method: as §2

ERBB4 = ERBB4 (Homo sapiens, UniProt Q15303); test: In vitro selectivity assay; type: biochemical; settings: selectivity panel
Method: as §2

TYRO3 = TYRO3 (Homo sapiens, UniProt Q06418); test: In vitro selectivity assay; type: biochemical; settings: selectivity panel
Method: as §2

PTK2B = target: T10, PTK2B (Homo sapiens, UniProt Q14289); test: In vitro selectivity assay; type: biochemical; settings: selectivity panel
T10 construct: ICE Bioscience Inc. (contract assay provider)
T10 sequence (Q14289 whole entry): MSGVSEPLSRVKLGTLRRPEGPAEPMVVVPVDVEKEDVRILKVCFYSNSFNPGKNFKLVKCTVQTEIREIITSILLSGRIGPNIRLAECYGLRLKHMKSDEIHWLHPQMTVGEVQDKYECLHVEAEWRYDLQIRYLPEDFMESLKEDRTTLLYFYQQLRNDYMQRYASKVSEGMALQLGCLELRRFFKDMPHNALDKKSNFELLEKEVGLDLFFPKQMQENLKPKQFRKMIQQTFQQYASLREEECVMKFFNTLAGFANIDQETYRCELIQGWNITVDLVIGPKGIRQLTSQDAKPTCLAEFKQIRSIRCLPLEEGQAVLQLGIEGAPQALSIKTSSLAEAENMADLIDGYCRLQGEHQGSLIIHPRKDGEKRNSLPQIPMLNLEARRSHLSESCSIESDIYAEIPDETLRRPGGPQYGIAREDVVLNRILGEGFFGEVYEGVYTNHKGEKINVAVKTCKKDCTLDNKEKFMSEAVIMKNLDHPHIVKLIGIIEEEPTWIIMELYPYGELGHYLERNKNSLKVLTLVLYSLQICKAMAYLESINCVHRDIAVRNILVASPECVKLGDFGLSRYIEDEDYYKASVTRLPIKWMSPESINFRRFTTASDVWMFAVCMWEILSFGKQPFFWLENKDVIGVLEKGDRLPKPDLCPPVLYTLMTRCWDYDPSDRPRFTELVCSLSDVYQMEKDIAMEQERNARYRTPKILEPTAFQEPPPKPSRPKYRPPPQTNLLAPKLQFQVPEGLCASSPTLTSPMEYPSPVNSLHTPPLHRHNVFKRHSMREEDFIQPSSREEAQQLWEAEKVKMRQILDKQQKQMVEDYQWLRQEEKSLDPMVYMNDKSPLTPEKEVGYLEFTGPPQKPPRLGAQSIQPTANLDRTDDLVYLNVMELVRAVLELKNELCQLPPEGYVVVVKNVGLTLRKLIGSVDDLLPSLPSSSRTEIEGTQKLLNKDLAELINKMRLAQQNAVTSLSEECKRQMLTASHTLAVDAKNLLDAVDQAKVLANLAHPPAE
Method: as §2

HDAC2 = target: T11, HDAC2 (Homo sapiens, UniProt Q92769); test: In vitro selectivity assay; type: biochemical; settings: selectivity panel
T11 construct: ICE Bioscience Inc. (contract assay provider)
T11 sequence (Q92769 whole entry): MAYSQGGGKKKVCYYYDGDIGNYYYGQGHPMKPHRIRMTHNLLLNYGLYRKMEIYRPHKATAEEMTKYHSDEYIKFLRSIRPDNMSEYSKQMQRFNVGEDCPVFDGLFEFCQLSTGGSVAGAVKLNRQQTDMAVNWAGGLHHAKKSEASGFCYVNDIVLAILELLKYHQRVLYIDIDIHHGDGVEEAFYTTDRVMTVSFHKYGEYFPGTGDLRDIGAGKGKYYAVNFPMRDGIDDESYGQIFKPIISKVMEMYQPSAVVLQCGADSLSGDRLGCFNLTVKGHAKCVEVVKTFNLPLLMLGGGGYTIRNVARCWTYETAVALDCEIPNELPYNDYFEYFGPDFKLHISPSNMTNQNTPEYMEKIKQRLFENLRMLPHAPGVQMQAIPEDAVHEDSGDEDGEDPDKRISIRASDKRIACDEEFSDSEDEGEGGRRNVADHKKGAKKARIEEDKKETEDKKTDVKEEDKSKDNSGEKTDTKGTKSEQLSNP
Method: as §2

JAK2 = JAK2 (Homo sapiens, UniProt O60674); test: In vitro selectivity assay; type: biochemical; settings: selectivity panel
Method: as §2

FGFR2 = FGFR2 (Homo sapiens, UniProt P21802); test: In vitro selectivity assay; type: biochemical; settings: selectivity panel
Method: as §2

DDR1 = target: T12, DDR1 (Homo sapiens, UniProt Q08345); test: In vitro selectivity assay; type: biochemical; settings: selectivity panel
T12 construct: ICE Bioscience Inc. (assay service)
Method: as §2

BMX = target: T13, BMX (Homo sapiens, UniProt P51813); test: In vitro selectivity assay; type: biochemical; settings: selectivity panel
T13 construct: ICE Bioscience Inc. (assay service)
T13 sequence (P51813 whole entry): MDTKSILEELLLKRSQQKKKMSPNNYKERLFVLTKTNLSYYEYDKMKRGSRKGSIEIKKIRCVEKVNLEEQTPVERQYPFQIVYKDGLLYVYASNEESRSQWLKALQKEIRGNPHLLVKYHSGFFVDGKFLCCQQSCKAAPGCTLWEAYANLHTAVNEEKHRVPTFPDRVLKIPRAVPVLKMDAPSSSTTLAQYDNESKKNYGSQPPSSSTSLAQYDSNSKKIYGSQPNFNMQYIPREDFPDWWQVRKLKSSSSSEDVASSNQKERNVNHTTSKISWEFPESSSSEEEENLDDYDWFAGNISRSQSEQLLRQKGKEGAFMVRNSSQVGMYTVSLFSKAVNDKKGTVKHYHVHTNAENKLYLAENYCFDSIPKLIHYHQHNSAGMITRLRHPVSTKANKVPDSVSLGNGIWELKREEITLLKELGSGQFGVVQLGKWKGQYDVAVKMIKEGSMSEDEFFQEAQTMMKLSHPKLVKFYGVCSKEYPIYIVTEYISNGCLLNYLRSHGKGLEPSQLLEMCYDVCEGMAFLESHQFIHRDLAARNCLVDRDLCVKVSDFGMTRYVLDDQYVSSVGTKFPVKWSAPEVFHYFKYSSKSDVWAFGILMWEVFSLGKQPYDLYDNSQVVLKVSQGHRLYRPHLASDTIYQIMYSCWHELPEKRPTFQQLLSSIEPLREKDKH
Method: as §2

MPS1 = target: T14, MPS1 (Homo sapiens, UniProt P33981); test: In vitro MPS1 inhibitory assay; type: biochemical
T14 construct: purchased Abcam
T14 sequence (P33981 1-857): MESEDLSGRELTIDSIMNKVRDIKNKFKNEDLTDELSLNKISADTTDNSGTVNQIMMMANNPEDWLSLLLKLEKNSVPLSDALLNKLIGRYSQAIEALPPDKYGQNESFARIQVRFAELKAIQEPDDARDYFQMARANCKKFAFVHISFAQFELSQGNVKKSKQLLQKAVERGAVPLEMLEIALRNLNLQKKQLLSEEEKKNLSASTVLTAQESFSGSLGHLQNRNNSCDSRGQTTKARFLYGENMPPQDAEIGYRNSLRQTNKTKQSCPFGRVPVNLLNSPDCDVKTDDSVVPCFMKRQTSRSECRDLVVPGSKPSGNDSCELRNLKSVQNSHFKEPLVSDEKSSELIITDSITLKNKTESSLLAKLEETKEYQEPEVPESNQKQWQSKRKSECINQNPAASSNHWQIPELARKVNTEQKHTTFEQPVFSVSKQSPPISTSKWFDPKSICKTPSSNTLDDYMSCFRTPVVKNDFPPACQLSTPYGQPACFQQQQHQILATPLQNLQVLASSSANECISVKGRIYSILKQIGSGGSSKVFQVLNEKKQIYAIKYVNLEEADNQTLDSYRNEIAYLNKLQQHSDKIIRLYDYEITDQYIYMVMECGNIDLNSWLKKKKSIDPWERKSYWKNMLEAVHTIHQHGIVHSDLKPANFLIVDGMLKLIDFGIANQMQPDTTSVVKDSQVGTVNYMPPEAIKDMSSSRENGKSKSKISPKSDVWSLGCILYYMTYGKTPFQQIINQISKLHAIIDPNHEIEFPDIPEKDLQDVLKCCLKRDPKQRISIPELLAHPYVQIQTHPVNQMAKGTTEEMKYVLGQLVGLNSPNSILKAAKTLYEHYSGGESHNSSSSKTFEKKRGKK
Method: The methodology is as previously described ([Naud et al., 2013]). In brief, the experiment was conducted using 384-well black low-volume plates, which were loaded with MPS1 (concentration range of 3–12.5 nM), 5 μM fluorescence-labelled peptide (sequence: 5FAM-[…]-CONH2), 10 μM ATP, 1% (v/v) DMSO or the test compound (concentrations in 1% (v/v) DMSO ranged from 0.25 to 100 μM), and assay buffer. […]. The plate was read on a Caliper EZ reader II (PerkinElmer Life Sciences, Waltham, MA, United States). […]

BEAS-2B = test: MTT cytotoxicity assay, BEAS-2B normal cells; type: cell-based; settings: Homo sapiens, 72 h cell treatment
Method: as §1

Cn1cc(-c2cc3cnc(Nc4ccc(-c5cncn5/C=C/C(=O)NO)cc4Cl)cc3n2C(=O)OC(C)(C)C)cn1 [MPH-5]
IC50 (L02): > 10 µM
IC50 (Li-7): 0.64 µM
IC50 (HDAC7): > 10 µM
IC50 (NTRK1): > 10 µM
IC50 (ERBB2): > 10 µM
IC50 (HDAC5): > 10 µM
IC50 (LYN): > 10 µM
IC50 (INSRR): > 10 µM
IC50 (ALK): > 10 µM
IC50 (EPHA4): > 10 µM
IC50 (HDAC3): > 10 µM
IC50 (HDAC4): > 10 µM
IC50 (ZAP70): > 10 µM
IC50 (INSR): > 10 µM
IC50 (AXL): > 10 µM
IC50 (ERBB4): > 10 µM
IC50 (TYRO3): > 10 µM
IC50 (PTK2B): > 10 µM
IC50 (HDAC2): > 10 µM
IC50 (JAK2): > 10 µM
IC50 (FGFR2): > 10 µM
IC50 (DDR1): > 10 µM
IC50 (BMX): > 10 µM
IC50 (MPS1): 0.00452 ± 0.00021 µM
MPS1 IC50 of MPH-5 relative to AZ3146 (MPS1; vs AZ3146): about 8 fold
IC50 (BEAS-2B): > 10 µM

Reference: publication PMC11439681, “The identification of potent dual-target monopolar spindle 1 (MPS1) and histone deacetylase 8 (HDAC8) inhibitors through pharmacophore modeling, molecular docking, molecular dynamics simulations, and biological evaluation” (Frontiers in Pharmacology, 2024)
